Legend:
[1] = biological target: T1, homomeric (CNGA1) rod CNG channels (Bos taurus, UniProt Q00194); conditions: cited from earlier work
T1 sequence (Q00194 1-690): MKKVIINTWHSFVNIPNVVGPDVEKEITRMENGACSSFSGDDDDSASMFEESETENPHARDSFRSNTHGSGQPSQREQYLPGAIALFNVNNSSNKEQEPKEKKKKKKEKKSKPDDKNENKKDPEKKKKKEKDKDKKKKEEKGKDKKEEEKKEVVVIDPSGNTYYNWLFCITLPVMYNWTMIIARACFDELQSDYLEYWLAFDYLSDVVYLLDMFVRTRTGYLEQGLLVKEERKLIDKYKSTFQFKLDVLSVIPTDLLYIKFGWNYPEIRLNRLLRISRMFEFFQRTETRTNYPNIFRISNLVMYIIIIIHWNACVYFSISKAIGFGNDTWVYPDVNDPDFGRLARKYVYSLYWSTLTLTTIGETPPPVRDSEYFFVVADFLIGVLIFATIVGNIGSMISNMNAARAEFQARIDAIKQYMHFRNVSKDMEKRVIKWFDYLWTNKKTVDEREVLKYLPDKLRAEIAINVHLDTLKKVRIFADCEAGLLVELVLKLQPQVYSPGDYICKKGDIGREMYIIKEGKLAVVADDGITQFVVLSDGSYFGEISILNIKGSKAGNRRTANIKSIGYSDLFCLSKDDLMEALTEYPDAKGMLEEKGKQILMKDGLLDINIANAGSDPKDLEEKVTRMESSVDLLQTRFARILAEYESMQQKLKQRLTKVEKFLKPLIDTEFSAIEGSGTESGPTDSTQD

[2] = biological target: heteromeric (CNGA1 + CNGB1) rod CNG channels (Bos taurus, UniProt Q00194+Q28181); conditions: ref Chen et al., 1993; cited from earlier work
[3] = biological target: T1, homomeric (CNGA1) rod CNG channels; type: cell-based, bovine
[4] = model fit of cGMP dose–response without ATR

Chain of heteromeric (CNGA1 + CNGB1) rod CNG channels (Q28181 whole entry, one chain of several): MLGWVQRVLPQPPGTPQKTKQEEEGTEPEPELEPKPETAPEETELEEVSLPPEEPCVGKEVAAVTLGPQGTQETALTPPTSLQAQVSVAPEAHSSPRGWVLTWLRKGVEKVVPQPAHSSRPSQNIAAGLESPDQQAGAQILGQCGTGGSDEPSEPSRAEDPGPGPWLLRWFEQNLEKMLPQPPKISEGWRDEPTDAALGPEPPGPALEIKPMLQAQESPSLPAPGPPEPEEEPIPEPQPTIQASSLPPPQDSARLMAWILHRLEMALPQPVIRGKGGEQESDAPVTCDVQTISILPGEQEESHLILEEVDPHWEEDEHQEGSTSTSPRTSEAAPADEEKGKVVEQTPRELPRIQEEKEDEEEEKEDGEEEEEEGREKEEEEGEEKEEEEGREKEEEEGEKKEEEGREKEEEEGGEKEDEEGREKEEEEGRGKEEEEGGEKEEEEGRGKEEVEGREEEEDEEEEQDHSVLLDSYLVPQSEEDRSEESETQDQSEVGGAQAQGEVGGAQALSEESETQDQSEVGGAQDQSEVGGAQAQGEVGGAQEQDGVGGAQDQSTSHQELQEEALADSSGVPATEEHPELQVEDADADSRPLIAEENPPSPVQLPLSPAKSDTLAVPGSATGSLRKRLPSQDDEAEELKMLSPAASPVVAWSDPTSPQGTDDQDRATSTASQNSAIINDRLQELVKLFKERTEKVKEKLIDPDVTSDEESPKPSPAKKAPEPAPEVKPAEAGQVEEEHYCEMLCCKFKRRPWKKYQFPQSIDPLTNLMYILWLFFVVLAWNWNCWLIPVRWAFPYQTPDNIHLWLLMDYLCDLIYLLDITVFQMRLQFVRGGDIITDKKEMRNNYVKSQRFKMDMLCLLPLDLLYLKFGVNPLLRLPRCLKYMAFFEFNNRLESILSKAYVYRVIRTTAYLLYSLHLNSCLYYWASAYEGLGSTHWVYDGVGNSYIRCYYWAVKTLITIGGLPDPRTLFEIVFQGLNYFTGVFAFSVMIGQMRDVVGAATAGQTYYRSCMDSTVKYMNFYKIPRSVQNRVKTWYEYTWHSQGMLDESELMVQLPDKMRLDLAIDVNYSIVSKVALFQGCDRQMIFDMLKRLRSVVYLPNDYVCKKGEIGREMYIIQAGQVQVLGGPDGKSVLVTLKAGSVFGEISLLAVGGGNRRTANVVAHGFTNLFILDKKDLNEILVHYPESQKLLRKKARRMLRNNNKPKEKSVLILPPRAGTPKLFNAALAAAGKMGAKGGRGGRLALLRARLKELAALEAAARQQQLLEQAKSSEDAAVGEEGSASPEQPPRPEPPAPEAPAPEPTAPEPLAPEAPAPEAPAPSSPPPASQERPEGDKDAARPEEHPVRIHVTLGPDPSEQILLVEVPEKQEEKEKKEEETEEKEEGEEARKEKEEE

## COc1ccc([C@H]2Sc3ccccc3N(CCN(C)C)C(=O)[C@H]2OC(C)=O)cc1 (relative stereo) [l-cis-diltiazem]
[1]; ref Chen et al., 1993
  effect on homomeric channels: little effect
[2]
  block of heteromeric channels: sensitively blocks

## CC1=C(/C=C/C(C)=C/C=C/C(C)=C/CO)C(C)(C)CCC1 [all-trans-retinol]
[1]; ref Dean et al., 2002
  inhibition of the rod CNG channel: inhibited quite well

## Nc1nc2c(ncn2[C@@H]2O[C@@H]3COP(=O)(O)O[C@H]3[C@H]2O)c(=O)[nH]1 [cGMP]
[3]; 2 mM cGMP, no ATR
  open probability predicted by KcN and L: 0.95
[3]; [4]
  KcN, association constant for cyclic nucleotide binding: 7,200 M^−1
  L, equilibrium constant for the allosteric opening transition of the fully liganded channel: 19.8

From PMC2234497 (The Journal of General Physiology, 2004)
